Publication PMC7156629, “Fluorescence anisotropy assays for high throughput screening of compounds binding to lipid II, PBP1b, FtsW and MurJ” (Scientific Reports, 2020)
“Also recorded” adds a separate entry of the source. Where two headings read alike, the source gives them in different places.

Tests used:
[1] = FA direct binding of antibiotics/compounds to NBD-lipid II probe; details: for Effect on FA signal of the NBD-lipid II probe (direct binding, no protein): increasing compound concentrations, probe 0.33 µM; for Kd: antibiotic binding to probe 0.33 µM, 10 mM Tris-HCl pH 7.5, 3% DMSO
Method: Serial dilutions of each antibiotic in 10 mM Tris-HCl pH 7.5 and 3% DMSO were prepared in 384-well plates (30 µL) in triplicates. […] Blank samples without antibiotic were also prepared for background fluorescence estimation. […] The data were analysed as described above with [R] and [RL] are, respectively, the equilibrium concentration of the compound and the compound-probe complex.

[2] = target: T1, FtsN (Escherichia coli, UniProt P29131); assay: FA direct binding of NBD-lipid II probe to FtsN (negative control); details: FtsN as negative control
T1 construct: made in house
Method: (§1) Fluorescent anisotropy (FA) experiments were performed in a black 384-well plate (Greiner Bio-One Polystyrene Non-Binding Flat Bottom) in triplicates. Serial dilutions of the protein (PBP1bγ, FtsW, FtsW-PBP3 or MurJ) in the appropriate buffer and the NBD-lipid II probe was added at a 0.33 µM final concentration. FtsN was used as a negative control under the same conditions. […] Fluorescence polarization (FP) and anisotropy (A) values were calculated using the equations FP = (I|| − G·I┴)/I||+ G·I┴) and A = 2· FP/3-FP respectively, where I|| is the fluorescence intensity of emitted light parallel to excitation, I┴ is the fluorescence intensity of emitted light perpendicular to excitation, and G is the correction factor that correct for instrument bias. The G factor is experimentally determined using the probe alone. […] For Kd determination, the fluorescence anisotropy data were analysed by nonlinear curve fitting to the Eq. (1) using GraphPad Prism 6.0 software[27].1 (A−Amin)/(Amax−Amin)=[RL]=(Kd+[R]+[L])−[(Kd+R]+[L])^2−4[R][L]]^1/2 Where A, Amin, Amax are the observed, the minimum and the maximum anisotropy, respectively, and [R], [L] and [RL] are the equilibrium concentration of the protein, the probe; and the protein-probe complex, respectively; Kd is the dissociation constant between the protein and the probe.

[3] = target: T2, PBP1b (Escherichia coli, UniProt P02919); assay: Fluorescence anisotropy (FA) direct binding of NBD-lipid II probe to PBP1b; set-up: made in house; species or system E. coli; details: probe 0.33 µM
Method: as §1

[4] = target: T3, FtsW (Escherichia coli, UniProt P0ABG4); assay: FA direct binding of NBD-lipid II probe to FtsW; set-up: made in house; species or system E. coli; details: probe 0.33 µM
Method: as §1

[5] = target: T4, FtsW-PBP3 (Escherichia coli, UniProt P0ABG4); assay: FA direct binding of NBD-lipid II probe to FtsW-PBP3 complex; set-up: made in house; species or system E. coli; details: probe 0.33 µM
Method: as §1

[6] = target: T5, MurJ (Escherichia coli, UniProt P0AF16); assay: FA direct binding of NBD-lipid II probe to MurJ; set-up: made in house; species or system E. coli; details: probe 0.33 µM
Method: as §1

[7] = read-out: Kd (Lipid II), values from the literature, cited from earlier work
[8] = system: PBP1b; set-up: method as in Terrak, M. et al. Mol. Microbiol. 34 (1999); details: ref Terrak, M. et al. Mol. Microbiol. 34 (1999), read-out: Km (Lipid II), values from the literature, cited from earlier work
[9] = target: MurJ; set-up: method as in Bolla, J. R. et al. Nat. Chem. 10 (2018); details: native mass spectrometry, ref Bolla, J. R. et al. Nat. Chem. 10 (2018), read-out: Kd (Lipid II), values from the literature; cited from earlier work
[10] = target: T3, FtsW; assay: FA competition assay, FtsW:NBD-lipid II; details: read-out: Ki values (unlabelled-Lipid II); displacement of probe (0.33 µM) from FtsW (~1 µM)
Method: (§2) Fixed concentrations of NBD-lipid II (0.33 µM) and proteins (~1 µM, 50–80% FA saturation[29]) were used. Serial dilutions of each antibiotic,unlabelled lipid II, or control compounds were prepared in 384-well plates in triplicates. Blank samples without proteins were also prepared for background fluorescence estimation. The mixtures (30 µL) were allowed to reach equilibrium for 20 min at room temperature with gentle shaking and the FA signals were recorded at 21 °C using an Infinite F Plex (Tecan, Männedorf, Switzerland) microplate reader equipped with polarization filters with excitation and emission wavelengths at 485 nm and 535 nm respectively. The data were plotted FA in millianisotropy units (mA) as a function of test compound concentration in µM. For the analysis of the completion data, fluorescence anisotropy values were fitted to the Eq. (3) using GraphPad Prism 6.0 software[30].3 [RL]=[R]/[1+Kd/[L](1+[C]/)Ki] Where [RL] is concentration of the receptor-probe complex; [R] is the concentration of the protein; [L] is the concentration of the probe; [C] is the concentration of test compound; Kd is the dissociation constant between the receptor and the probe (determined above); Ki is dissociation constant between the test compound and its target.

[11] = target: T5, MurJ; assay: FA competition assay, MurJ:NBD-lipid II; details: read-out: Ki values (unlabelled-Lipid II); displacement of probe (0.33 µM) from MurJ (~1 µM)
Method: as §2

[12] = target: T2, PBP1b; assay: FA competition assay, PBP1b:NBD-lipid II; details: read-out: Ki values (unlabelled-Lipid II); displacement of probe (0.33 µM) from PBP1b (~1 µM)
Method: as §2

[13] = target: T4, FtsW-PBP3; assay: FA competition assay, FtsW-PBP3:NBD-lipid II; details: read-out: Ki values (unlabelled-Lipid II); displacement of probe (0.33 µM) from FtsW-PBP3 (~1 µM)
Method: as §2

[14] = ref Lo, M. C. et al. J. Am. Chem. Soc. 122 (2000); read-out: IC50 (Lipid II), values from the literature; cited from earlier work

T3 sequence (P0ABG4 whole entry): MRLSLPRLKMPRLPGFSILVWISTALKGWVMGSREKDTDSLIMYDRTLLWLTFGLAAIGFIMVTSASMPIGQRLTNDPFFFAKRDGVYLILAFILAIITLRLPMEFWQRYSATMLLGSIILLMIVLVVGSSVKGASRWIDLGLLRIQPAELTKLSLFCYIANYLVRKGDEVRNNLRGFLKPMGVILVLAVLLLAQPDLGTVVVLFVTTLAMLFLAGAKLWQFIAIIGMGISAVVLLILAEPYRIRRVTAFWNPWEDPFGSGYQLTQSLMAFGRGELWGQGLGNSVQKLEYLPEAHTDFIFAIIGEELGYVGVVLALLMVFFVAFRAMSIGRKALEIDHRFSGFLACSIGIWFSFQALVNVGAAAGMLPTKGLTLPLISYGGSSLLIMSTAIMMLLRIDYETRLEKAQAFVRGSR
T4 sequence (P0ABG4 whole entry): as above
T4 sequence (P0AD68 1-577, further chain): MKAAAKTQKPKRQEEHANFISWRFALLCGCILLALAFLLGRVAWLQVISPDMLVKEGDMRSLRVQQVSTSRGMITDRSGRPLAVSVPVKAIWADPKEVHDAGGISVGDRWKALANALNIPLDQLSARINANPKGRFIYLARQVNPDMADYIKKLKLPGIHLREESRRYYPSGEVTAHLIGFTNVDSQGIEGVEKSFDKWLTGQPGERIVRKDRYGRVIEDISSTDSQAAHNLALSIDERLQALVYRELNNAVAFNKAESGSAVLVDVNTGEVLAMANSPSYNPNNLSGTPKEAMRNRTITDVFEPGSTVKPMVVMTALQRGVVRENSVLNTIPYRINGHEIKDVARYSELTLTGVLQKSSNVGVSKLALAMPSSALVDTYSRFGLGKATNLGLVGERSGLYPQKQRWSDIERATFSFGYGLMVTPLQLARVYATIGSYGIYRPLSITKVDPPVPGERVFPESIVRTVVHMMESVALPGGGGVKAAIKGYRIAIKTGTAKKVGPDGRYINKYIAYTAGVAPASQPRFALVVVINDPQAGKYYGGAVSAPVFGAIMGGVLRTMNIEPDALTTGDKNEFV
T2 sequence (P02919 46-844): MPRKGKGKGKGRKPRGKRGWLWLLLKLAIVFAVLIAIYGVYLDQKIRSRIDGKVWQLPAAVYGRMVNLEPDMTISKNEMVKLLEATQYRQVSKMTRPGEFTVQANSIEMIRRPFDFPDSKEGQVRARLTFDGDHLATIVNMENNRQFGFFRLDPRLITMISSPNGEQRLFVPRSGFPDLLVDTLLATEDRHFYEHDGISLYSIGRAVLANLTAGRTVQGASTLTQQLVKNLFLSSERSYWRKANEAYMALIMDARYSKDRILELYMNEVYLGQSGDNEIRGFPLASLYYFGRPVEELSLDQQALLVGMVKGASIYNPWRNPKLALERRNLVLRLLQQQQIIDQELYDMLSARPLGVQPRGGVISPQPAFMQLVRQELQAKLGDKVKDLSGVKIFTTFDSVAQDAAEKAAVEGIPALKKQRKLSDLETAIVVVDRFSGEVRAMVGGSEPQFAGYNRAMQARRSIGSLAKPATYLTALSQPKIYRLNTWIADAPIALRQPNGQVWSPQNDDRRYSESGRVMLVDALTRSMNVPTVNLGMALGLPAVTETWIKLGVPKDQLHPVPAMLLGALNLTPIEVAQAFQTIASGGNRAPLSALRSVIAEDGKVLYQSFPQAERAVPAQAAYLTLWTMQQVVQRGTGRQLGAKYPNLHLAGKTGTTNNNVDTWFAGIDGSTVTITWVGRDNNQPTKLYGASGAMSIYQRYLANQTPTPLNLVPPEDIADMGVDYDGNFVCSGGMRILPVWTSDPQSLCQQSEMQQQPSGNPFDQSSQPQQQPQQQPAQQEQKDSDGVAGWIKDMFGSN
T5 sequence (P0AF16 whole entry): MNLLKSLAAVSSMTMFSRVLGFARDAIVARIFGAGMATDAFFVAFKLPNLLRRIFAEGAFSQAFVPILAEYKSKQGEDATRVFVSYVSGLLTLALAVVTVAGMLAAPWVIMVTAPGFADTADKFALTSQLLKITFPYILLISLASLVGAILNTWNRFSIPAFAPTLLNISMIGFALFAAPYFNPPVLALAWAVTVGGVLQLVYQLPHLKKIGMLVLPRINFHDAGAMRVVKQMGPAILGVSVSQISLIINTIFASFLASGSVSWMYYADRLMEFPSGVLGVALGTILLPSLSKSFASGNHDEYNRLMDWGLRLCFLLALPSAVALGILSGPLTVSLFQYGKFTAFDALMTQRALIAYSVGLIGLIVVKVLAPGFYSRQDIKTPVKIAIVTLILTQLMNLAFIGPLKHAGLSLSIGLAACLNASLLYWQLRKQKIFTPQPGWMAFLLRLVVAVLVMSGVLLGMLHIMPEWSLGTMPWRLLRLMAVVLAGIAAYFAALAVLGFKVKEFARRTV
T1 sequence (P29131 whole entry): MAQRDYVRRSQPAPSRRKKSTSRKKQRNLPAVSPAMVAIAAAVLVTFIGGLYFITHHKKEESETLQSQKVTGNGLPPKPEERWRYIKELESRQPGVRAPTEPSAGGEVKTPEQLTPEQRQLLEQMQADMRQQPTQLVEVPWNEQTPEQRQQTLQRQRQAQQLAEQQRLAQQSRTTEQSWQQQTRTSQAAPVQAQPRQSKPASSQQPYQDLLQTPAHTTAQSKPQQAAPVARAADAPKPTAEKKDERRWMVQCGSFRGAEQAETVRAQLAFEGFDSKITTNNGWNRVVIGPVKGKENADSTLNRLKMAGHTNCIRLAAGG

Compound: CC1(C)S[C@@H]2[C@H](NC(=O)[C@H](N)c3ccccc3)C(=O)N2[C@H]1C(=O)O [Ampicillin]
- Effect on FA signal of the NBD-lipid II probe (direct binding, no protein) [1]: no significant effect on the FA of the probe
- Effect on FA signal of the NBD-lipid II probe (direct binding, no protein) ([1]; listed as ampicillin): do not bind to the probe

Compound: CC(=O)N[C@H]1[C@H](O[C@H]2[C@H](O[C@H](C)C(=O)N[C@@H](C)C(=O)N[C@H](CCC(=O)N[C@@H](CCCCNc3ccc([N+](=O)[O-])c4nonc34)C(=O)N[C@H](C)C(=O)N[C@H](C)C(=O)O)C(=O)O)[C@@H](NC(C)=O)[C@@H](OP(=O)(O)OP(=O)(O)OC/C=C(/C)CC/C=C(/C)CC/C=C(/C)CC/C=C(/C)CC/C=C(/C)CC/C=C(/C)CC/C=C(/C)CC/C=C(/C)CC/C=C(\C)CC/C=C(\C)CCC=C(C)C)O[C@@H]2CO)O[C@H](CO)[C@@H](O)[C@@H]1O [NBD-lipid II, Nitrobenzoxadiazole (NBD)-labelled Lipid II]
- Effect of FtsN on FA of the probe [2]: had no effect on the FA of the probe
- Kd [3]: 500 ± 200 nM
- Kd [4]: 300 ± 100 nM
- Kd [5]: 300 ± 100 nM
- Kd [6]: 1100 ± 300 nM

Compound: CN[C@H](CC(C)C)C(=O)N[C@H]1C(=O)N[C@@H](CC(N)=O)C(=O)N[C@H]2C(=O)N[C@H]3C(=O)N[C@H](C(=O)N[C@H](C(=O)O)c4cc(O)cc(O)c4-c4cc3ccc4O)[C@H](O)c3ccc(c(Cl)c3)Oc3cc2cc(c3O[C@@H]2O[C@H](CO)[C@@H](O)[C@H](O)[C@H]2O[C@H]2C[C@](C)(N)[C@H](O)[C@H](C)O2)Oc2ccc(cc2Cl)[C@H]1O [Vancomycin, vancomycin]
- Kd [1]: 300 ± 100 nM
- Effect on FA signal of the NBD-lipid II probe (direct binding, no protein) [1]: induced an increase of FA
- Kd ([7]; ref Münch, D. & Sahl, H.-G. Biochim. Biophys. Acta 1848 (2015)): 500 nM

Compound: C=C(C/C=C(\C)CCC=C(C)C)CCC(C)(C)/C=C/CC/C(C)=C/CO[C@@H](COP(=O)(O)O[C@H]1O[C@H](C(N)=O)[C@@](C)(O)[C@H](OC(N)=O)[C@H]1O[C@@H]1O[C@H](CO[C@@H]2O[C@H](CO)[C@@H](O)[C@H](O)[C@H]2O)[C@@H](O[C@@H]2O[C@H](C)[C@@H](O[C@@H]3O[C@H](C(=O)NC4=C(O)CCC4=O)[C@H](O)[C@H](O)[C@H]3O)[C@H](O)[C@H]2NC(C)=O)[C@H](O)[C@H]1NC(C)=O)C(=O)O [moenomycin A, Moenomycin A]
- Effect on FA signal of the NBD-lipid II probe (direct binding, no protein) [1]: did not significantly affect the FA signal
- Effect on FA signal of the NBD-lipid II probe (direct binding, no protein) ([1]; listed as Moenomycin): no effect on the FA of the probe

Compound: N[C@@H](Cc1c[nH]c2ccccc12)C(=O)O [tryptophan]
- Effect on FA signal of the NBD-lipid II probe (direct binding, no protein) [1]: do not bind to the probe; also recorded: no significant effect on the FA of the probe

Compound: CC(=O)N[C@H]1[C@H](O[C@H]2[C@H](O[C@H](C)C(=O)N[C@@H](C)C(=O)N[C@H](CCC(=O)N[C@@H](CCCCN)C(=O)N[C@H](C)C(=O)N[C@H](C)C(=O)O)C(=O)O)[C@@H](NC(C)=O)[C@@H](OP(=O)(O)OP(=O)(O)OC/C=C(/C)CC/C=C(/C)CC/C=C(/C)CC/C=C(/C)CC/C=C(/C)CC/C=C(/C)CC/C=C(/C)CC/C=C(/C)CC/C=C(\C)CC/C=C(\C)CCC=C(C)C)O[C@@H]2CO)O[C@H](CO)[C@@H](O)[C@@H]1O [unlabelled lipid II, undecaprenyl-pyrophosphoryl-MurNAc(pentapeptide)-(beta-1,4)-GlcNAc]
- Effect on FA signal of the NBD-lipid II probe (direct binding, no protein) [1]: no direct effect on the FA of the probe
- Effect on FA signal of the NBD-lipid II probe (direct binding, no protein) ([1]; listed as unlabeled lipid II): did not significantly affect the FA signal
- Km ([8]; listed as Lipid II): 1.8 ± 0.8 µM
- Km ([8]; listed as lipid II): ~2 µM
- Kd [9]: 2900 nM
- Ki [10]: 5900 ± 1800 nM
- Ki [11]: 4600 ± 800 nM
- Ki [12]: 1400 ± 200 nM
- Ki [13]: 6800 ± 1000 nM

Compound: nisin (ITSISLCTPGCKTGALMGCNMKTATCHCSIHVSK; not fully specified; Lantibiotic nisin-A; UniProt P13068 24-57, looked up)
- Kd [1]: 300 ± 100 nM
- Effect on FA signal of the NBD-lipid II probe (direct binding, no protein) [1]: induced an increase of FA
- Kd ([7]; ref 'T Hart, P. et al. Biochemistry 55 (2016)): 14.6 to 50 nM

Compound: ramoplanin
- Kd [1]: 230 ± 50 nM
- Effect on FA signal of the NBD-lipid II probe (direct binding, no protein) [1]: induced an increase of FA
- IC50 [14]: 300 nM
